# From patent US9012435B2, “Glucocorticoids attached to nitrate esters via an aromatic linker in position 21 and their use in ophthalmology” (Nicox S.A., priority 2008, dated 2015)
# Read-outs that look alike come from different tables or passages of the source.
# How the values were obtained:
# [1] = system: isolated rabbit thoracic aorta preparations; test: Assay on vascular tone (vasorelaxation of methoxamine-precontracted aortic rings); conditions: for EC50: Oryctolagus cuniculus, read-out: EC50 (concentration producing 50% of the maximum relaxation)
# Method: The ability of the compounds of the invention to induce vasorelaxation in comparison to precursor compounds was tested in vitro in isolated rabbit thoracic aorta preparations (Wanstall J. C. et al., Br. J. Pharmacol., 134:463-472, 2001). Male New Zealand rabbits (1,8-2 Kg) were used. The animals were anaesthetized with sodium thiopental (50 mg/kg, iv), sacrificed by exsanguinations and then the thorax was opened and the aorta dissected. The aortas were placed immediately in Krebs-HEPES buffer (pH 7.4; composition mM: NaCl 130.0, Kcl 3.7, […] 14.9, KH2PO4 1.2, MgSO4.7H2O 1.2, Glucose 11.0, HEPES 10.0, CaCl2.2H2O 1.6) and cut into ring segments (4-5 mm in length). Each ring was placed in a 5 ml tissue bath filled with Krebs-HEPES buffer (37° C.) aerated with 95% O2 and 5% CO2 and was then attached to a force transducer (Grass FT03), connected to a BIOPAC MP150 System for measurement of the isometric tension^2. The preparations were allowed to equilibrate for 1 h at a resting tension of 2 g with changes of the buffer every 15 minutes and then stimulated by exposure to 90 mM KCl (3 times) with intervening washings. After equilibration, the rings were precontracted submaximally with methoxamine (3 μM) and, when the contraction reach a steady state a cumulative concentration-response curve to the test compounds was obtained. The time intervals between doses were based on the time needed to reach a full a steady state response.
# Responses to test compounds were expressed as a percentage of residual contraction and plotted against concentration of test compound. EC50 values (where EC50 is the concentration producing 50% of the maximum relaxation to the test compound) were interpolated from these plots.
# [2] = system: VEGF-induced leakage rat model; test: VEGF-induced retinal vascular leakage rat model (Evans blue); format: in vivo; conditions: VEGF 100 ng/eye
# Method: Pupils were dilated with 1% topical cyclopentolate hydrochloride to see the needle to guide the intravitreal injection. Recombinant rat vascular endothelial growth factor (VEGF; 100 ng/eye) or VEGF at 100 ng/eye plus test compounds were prepared in 0.5% carboxymethyl cellulose (CMC) in sterile saline and was injected into the vitreous with a 30-gauge needle (Xu, Q., et al. Invest. Ophthalmol. Vis. Sci., 42:789-794, 2001). The compounds of the invention were compared to corresponding steroid cores at equimolar doses. […] Control animals received vehicle. Compound (18) was similarly dosed alongside triamcinolone acetonide for comparison.
# Retinal vascular leakage was measured as described previously (Xu, Q., et al. Invest. Ophthalmol. Vis. Sci., 42:789-794, 2001). After about 18 hours post injection of test compounds, rats were anesthetized with ketamine (80 mg/kg) and xylazine (4 mg/kg) IP. Then 45 mg/kg Evans blue (EB) was injected into the jugular vein. The dye was allowed to circulate for 2 hours. The chest cavity was opened and rats then perfused with 1% formalin in 0.5 M citrate buffer (pH 3.5, 37° C.) through the left ventricle. Retinas were carefully dissected from enucleated eyes, placed in pre-weighed Eppendorf tubes, dried in speed vacuum overnight and dry weights recorded. Evans blue was extracted by incubating each retina in 120 μl formamide for 18 hours at 70° C., centrifuged for 2 hours at 6000 rpm. Absorbance of 60 μl of extract was measured at 620 nm and background absorbance was determined at 740 nm. Net absorbance was calculated by subtracting the background 740 nm from that at 620 nm. Measurement of a standard curve of Evans blue in formamide was also done and Evans blue leakage expressed as μl/g/h was calculated as shown below: [EB(ng/ml)×120 (μl)×1000]/[dry weight retina (mg)×circulation time (h)×plasma EB(ng/ml)×100]
# ophthalmic artery = test: Ocular haemodynamics (Color Doppler Imaging, Pourcelot Resistance Index) in ET-1 induced ischemia; format: in vivo, rabbit
# Method: Haemodynamic evaluations were performed using an eco-color-doppler DynaView TM II SSD-1700 (Aloka Holding Europe AG, Milan, Italy). All animals underwent Color Doppler Imaging (CDI) investigation before ET-1 injection (T0), before the start of drug instillation (T2) and at the end of the drug treatment (T6). Special attention was devoted to the evaluation of ophthalmic and ciliary artery circulation. Blood flow velocities were measured for each vessel and the Pourcelot Resistance Index (RI) was calculated (Galassi F. et al., Acta Opht. Scand Suppl. (2000) 37-38).
# TNFα = TNFα content in aqueous humor (ELISA), ET-1 induced ischemia; format: in vivo, rabbit; conditions: ET-1 treated rabbits; 0.5 mg (equivalent)/eye IVT
# Method: (§1) Aqueous humor samples were withdrawn from both anterior and posterior chamber fluids of each eye before ET-1 administration (T0), before the administration of Compound (1) or fluorocinolone acetonide (T2), and at the end of treatments (T6). The same volume of saline were reintroduced every time. The aqueous humor samples were immediately frozen at −80° C. until use.
# (§2) Tumor necrosis factor (TNFα) and interleukin 6 (IL-6) were determined in aqueous humor with a commercial kit using an ELISA method (Amersham Pharmacia Biotech). The minimum detectable concentrations were 0.10 pg/ml for IL-6 and TNFα. The interassay coefficient of variation was 0.7% for all assays.
# VEGF = VEGF content in aqueous humor, ET-1 induced ischemia; format: in vivo, rabbit; conditions: ET-1 treated rabbits; 0.5 mg (equivalent)/eye IVT
# IL-6 = IL-6 content in aqueous humor (ELISA), ET-1 induced ischemia; format: in vivo, rabbit; conditions: ET-1 treated rabbits; 0.5 mg (equivalent)/eye IVT
# Method: as §1, §2
# retinal tissue = test: Retina protection: morphological analysis, ET-1 induced ischemia; format: in vivo, rabbit; conditions: long term ET-1 treatment; 0.5 mg (equivalent)/eye IVT
# Method: The eyes of each animal was enucleated, cornea and crystalline were removed and the eyes was paraformaldehyde-fixed. Then samples were dehydrated with increasing alcohol concentration (50°-75°-95°-100°). After 95° alcohol treatment, the eyes were divided into two parts following a longitudinal plain from cornea to insertion of optical nerve. Thus the samples were paraffin-embedded. Section 8 μm thick were stained with Haematoxylin-Eosin. Microscopical fields were registered by digitizing camera applied a light microscope with a 20× and 40× objective. On the digitized images was performed a morphological analysis of retinal tissue.
# Brown Norway rats = test: Steroid-induced intraocular pressure (IOP) elevation in rats after intravitreal injection; conditions: 39.1 μg/eye (25 μg/eye equivalent) intravitreal
# Source text: Male Brown Norway rats (250-275 g; Charles River laboratory) were acclimated for a week before IOP measurements. Baseline IOP measurements with Tonolab Tonometer (Tiolat Inc) were done in conscious rats (Pease, M. E., et al J. Glaucoma, 15:512-519, 2006) before intravitreal injection of test compounds. Then the rats were anesthetized with isoflurane inhalation and a drop of 0.5% tetracaine was topically applied on the eyes. Pupils were dilated with 1% topical cyclopentolate hydrochloride and 2.5% phenylephrine HCl to see the needle to aim the intravitreal injection of test compounds. […] For example, to compare to fluocinolone acetonide at both 25 and 50 μg/eye, compound (1) was dosed at 42.4 and 84.7 μg/eye, respectively. The des-nitro analog of compound (1) was dosed at 39.1 μg/eye (equivalent for 25 μg FC). Control animals received vehicle.
# Five measurements were averaged for each time point. IOP measurements were taken at one and two weeks after intravitreal injection of test compounds.
# [3] = rabbit aortic rings precontracted with methoxamine 3 μM
compound,measurement,setting,value
"CC1(C)O[C@@H]2C[C@H]3[C@@H]4CCC5=CC(=O)C=C[C@]5(C)[C@@]4(F)[C@@H](O)C[C@]3(C)[C@]2(C(=O)CO)O1 [TAAC, Triamcinolone acetonide]",EC50 (concentration producing 50% of the maximum relaxation),[1]; [3],no effect
same,reduction of VEGF-induced leakage,[2]; 10 μg/eye intravitreal,67.5%
"CC1(C)O[C@@H]2CC3C4C[C@H](F)C5=CC(=O)C=C[C@]5(C)[C@@]4(F)[C@@H](O)C[C@]3(C)[C@]2(C(=O)COC(=O)Oc2cc(C(=O)OCCCCO[N+](=O)[O-])cc(O)c2O)O1 (stereo partly drawn) [Compound (6), 4-(nitrooxy)butyl 3-((2-((6S,9R,10S,11S,13S,16R,17S)-6,9-difluoro-11-hydroxy-16,17-((1-methylethylidene)bis(oxy))-10,13-dimethyl-3-oxo-6,7,8,9,10,11,12,13,14,15,16,17-dodecahydro-3H-cyclopenta[a]phenanthren-17-yl)-2-oxoethoxy)carbonyloxy)-4,5-dihydroxybenzoate]",EC50,[1]; [3],1440 ± 410 nM
"CC1(C)O[C@@H]2CC3C4CCC5=CC(=O)C=C[C@]5(C)[C@@]4(F)[C@@H](O)C[C@]3(C)[C@]2(C(=O)COC(=O)Oc2cc(C(=O)OCCCCO[N+](=O)[O-])cc(O)c2O)O1 (stereo partly drawn) [Compound (10), 4-(nitrooxy)butyl 3-((2-((9R,10S,11S,13S,16R,17S)-9-fluoro-11-hydroxy-16,17-((1-methylethylidene)bis(oxy))-10,13-dimethyl-3-oxo-6,7,8,9,10,11,12,13,14,15,16,17-dodecahydro-3H-cyclopenta[a]phenanthren-17-yl)-2-oxoethoxy)carbonyloxy)-4,5-dihydroxybenzoate]",EC50,[1]; [3],2350 ± 980 nM
"COc1cc(C(=O)OCCCCO[N+](=O)[O-])ccc1OC(=O)OCC(=O)[C@@]12OC(C)(C)O[C@@H]1CC1C3CCC4=CC(=O)C=C[C@]4(C)[C@@]3(F)[C@@H](O)C[C@@]12C (stereo partly drawn) [Compound (18), 4-(nitrooxy)butyl 4-((2-((9R,10S,11S,13S,16R,17S)-9-fluoro-11-hydroxy-16,17-(1-methylethylidenebis(oxy))-10,13-dimethyl-3-oxo-6,7,8,9,10,11,12,13,14,15,16,17-dodecahydro-3H-cyclopenta[a]phenanthren-17-yl)-2-oxoethoxy)carbonyloxy)-3-methoxybenzoate]",EC50,[1]; [3],1560 nM
same,reduction of VEGF-induced leakage,"[2]; dose equivalent to 10 μg/eye triamcinolone acetonide, intravitreal",54.3%
"COc1cc(C(=O)OCCOCCOCCO[N+](=O)[O-])ccc1OC(=O)OCC(=O)[C@@]12OC(C)(C)O[C@@H]1CC1C3C[C@H](F)C4=CC(=O)C=C[C@]4(C)[C@@]3(F)[C@@H](O)C[C@@]12C (stereo partly drawn) [Compound (5), 2-(2-(2-(nitrooxy)ethoxy)ethoxy)ethyl 4-((2-((6S,9R,10S,11S,13S,16R,17S)-6,9-difluoro-11-hydroxy-16,17-((1-methylethylidene)bis(oxy))-10,13-dimethyl-3-oxo-6,7,8,9,10,11,12,13,14,15,16,17-dodecahydro-3H-cyclopenta[a]phenanthren-17-yl)-2-oxoethoxy)carbonyloxy)-3-methoxybenzoate]",EC50,[1]; [3],830 ± 250 nM
"COc1cc(C(=O)OCCCCC(CO[N+](=O)[O-])O[N+](=O)[O-])ccc1OC(=O)OCC(=O)[C@@]12OC(C)(C)O[C@@H]1CC1C3C[C@H](F)C4=CC(=O)C=C[C@]4(C)[C@@]3(F)[C@@H](O)C[C@@]12C (stereo partly drawn) [Compound (3), 5,6-bis(nitrooxy)hexyl 4-((2-((6S,9R,10S,11S,13S,16R,17S)-6,9-difluoro-11-hydroxy-16,17-((1-methylethylidene)bis(oxy))-10,13-dimethyl-3-oxo-6,7,8,9,10,11,12,13,14,15,16,17-dodecahydro-3H-cyclopenta[a]phenanthren-17-yl)-2-oxoethoxy)carbonyloxy)-3-methoxybenzoate]",EC50,[1]; [3],210 ± 70 nM
"COc1cc(C(=O)OCCCCO[N+](=O)[O-])ccc1OC(=O)OCC(=O)[C@@]12OC(C)(C)O[C@@H]1CC1C3C[C@H](F)C4=CC(=O)C=C[C@]4(C)[C@@]3(F)[C@@H](O)C[C@@]12C (stereo partly drawn) [Compound (1), 4-(nitrooxy)butyl 4-((2-((6S,9R,10S,11S,13S,16R,17S)-6,9-difluoro-11-hydroxy-16,17-16,17-(1-methylethylidenebis(oxy))-10,13-dimethyl-3-oxo-6,7,8,9,10,11,12,13,14,15,16,17-dodecahydro-3H-cyclopenta[a]phenanthren-17-yl)-2-oxoethoxy)carbonyloxy)-3-methoxybenzoate]",EC50,[1],2200 nM
same,inhibition of VEGF-induced leakage,"[2]; 42.4 μg/eye intravitreal (equimolar to 25 μg/eye FC), 18 hours after injection",77.1%
same,Resistence Index,"ophthalmic artery; After 2 weeks (before drug instillation, T2)",0.43 ± 0.08
same,Resistence Index,"ophthalmic artery; After 6 weeks (end of drug treatment), 0.5 mg (equivalent)/eye IVT",0.41 ± 0.03
same,Resistence Index,ophthalmic artery; Basal,0.43 ± 0.06
same,TNFα content in aqueous humor,TNFα,18.93 ± 0.98 pg/mL
same,VEGF content in aqueous humor,VEGF,105.79 ± 1.98 pg/mL
same,IL6 content in aqueous humor,IL-6,15.70 ± 1.73 pg/mL
same,ET-1 induced morphological changes of retinal tissue,retinal tissue,not equally present
"CCCCOC(=O)c1ccc(OC(=O)OCC(=O)C23OC(C)(C)OC2CC2C4CC(F)C5=CC(=O)C=CC5(C)C4(F)C(O)CC23C)c(OC)c1 [des-nitro analog of compound (1), Butyl 4-((2-((6S,9R,10S,11S,13S,16R,17S)-6,9-difluoro-11-hydroxy-16,17-16,17-(1-methylethylidenebis(oxy))-10,13-dimethyl-3-oxo-6,7,8,9,10,11,12,13,14,15,16,17-dodecahydro-3H-cyclopenta[a]phenanthren-17-yl)-2-oxoethoxy)carbonyloxy)-3-methoxybenzoate]",IOP compared to compound (1) at 42.4 μg/eye (FIG. 4),Brown Norway rats,increase in IOP
